According to the OligoGym collection:
“And” between values parts separate entries of the source, which are not always exact repeats. Equal entries are not always repeated. After the bases stand the sugars from the 5' end (letter, count) and the backbone: PS all phosphorothioate, else s phosphorothioate and o phosphodiester by linkage. Methylation of C is not given here. e = 2'-O-(2-methoxyethyl) (MOE); k = constrained ethyl (cEt); d = 2'-deoxy (DNA)

Molecular target: SOD1
Conditions: ASO

## CCTCAGACTACATCCAA (sugars e2 k2 d8 k2 e3, PS)
HepG2, 0.1875 µM
  target mRNA inhibition: 26%
HepG2, 0.75 µM
  target mRNA inhibition: 51%
HepG2, 3 µM
  target mRNA inhibition: 77%
HepG2, 4 µM
  target mRNA inhibition: 73%
HepG2, 12 µM
  target mRNA inhibition: 91%

## TCCAAGTGATCATAAAT (sugars e2 k2 d9 k2 e2, PS)
HepG2, 5 µM
  target mRNA inhibition: 39%

## CTCCTGAGAGTGAGATCACA (sugars e5 d10 e5, PS)
HepG2, 5 µM
  target mRNA inhibition: 27%

## ATGTTTATCAGGATACA (sugars e2 k2 d9 k2 e2, linkages s1 o3 s9 o1 s2)
A431, 0.12 µM
  target mRNA inhibition: 1%
A431, 0.6 µM
  target mRNA inhibition: 4%
A431, 3 µM
  target mRNA inhibition: 21%
A431, 15 µM
  target mRNA inhibition: 29%
HepG2, 0.222 µM
  target mRNA inhibition: 47%
HepG2, 0.667 µM
  target mRNA inhibition: 71%
HepG2, 2 µM
  target mRNA inhibition: 92%
HepG2, 6 µM
  target mRNA inhibition: 82%

## TATTGGGCGATCCCAAT (sugars e2 k2 d9 k2 e2, PS)
HepG2, 4 µM
  target mRNA inhibition: 6%

## GTGTTTAATGTTTATCAG (sugars e5 d8 e5, linkages s1 o3 s9 o2 s2)
A431, 0.12 µM
  target mRNA inhibition: 1%
A431, 0.6 µM
  target mRNA inhibition: 15%
A431, 3 µM
  target mRNA inhibition: 36%
A431, 15 µM
  target mRNA inhibition: 50%
HepG2, 0.222 µM
  target mRNA inhibition: 20%
HepG2, 0.667 µM
  target mRNA inhibition: 43%
HepG2, 2 µM
  target mRNA inhibition: 56%
HepG2, 6 µM
  target mRNA inhibition: 81%

## TGCAGGCCTTCAGTCAGTCC (sugars e5 d10 e5, PS)
HepG2, 5 µM
  target mRNA inhibition: 42% and 46%

## TAATGTTTATCAGGATA (sugars e2 k2 d8 k2 e3, PS)
HepG2, 0.1875 µM
  target mRNA inhibition: 48%
HepG2, 0.75 µM
  target mRNA inhibition: 78%
HepG2, 3 µM
  target mRNA inhibition: 91%
HepG2, 4 µM
  target mRNA inhibition: 90%
HepG2, 12 µM
  target mRNA inhibition: 95%

## TTTTAGTTTGAATTTGGATT (sugars e5 d10 e5, PS)
HepG2, 5 µM
  target mRNA inhibition: 0%

## AGGATACATTTCTACAGC (sugars e5 d8 e5, linkages s1 o3 s9 o2 s2)
A431, 0.12 µM
  target mRNA inhibition: 42%
A431, 0.6 µM
  target mRNA inhibition: 23%
A431, 3 µM
  target mRNA inhibition: 26%
A431, 15 µM
  target mRNA inhibition: 45%
HepG2, 0.222 µM
  target mRNA inhibition: 9%
HepG2, 0.667 µM
  target mRNA inhibition: 43%
HepG2, 2 µM
  target mRNA inhibition: 65%
HepG2, 6 µM
  target mRNA inhibition: 86%

## TACAGCTAGCAGGATAA (sugars e2 k2 d9 k2 e2, PS)
HepG2, 0.1875 µM
  target mRNA inhibition: 24%
HepG2, 0.75 µM
  target mRNA inhibition: 71%
HepG2, 3 µM
  target mRNA inhibition: 85%
HepG2, 4 µM
  target mRNA inhibition: 86%
HepG2, 12 µM
  target mRNA inhibition: 98%

## CTTTTAAGATTACAGTG (sugars e2 k2 d9 k2 e2, PS)
HepG2, 5 µM
  target mRNA inhibition: 53%

## CAAACCAGCACCCCGTCTCC (sugars e5 d10 e5, PS)
HepG2, 4 µM
  target mRNA inhibition: 13%

## CACATCGGCCACACCATCTT (sugars e5 d10 e5, PS)
HepG2, 5 µM
  target mRNA inhibition: 27% and 13%

## TACCCATCTGTGATTTAAGT (sugars e5 d10 e5, PS)
HepG2, 5 µM
  target mRNA inhibition: 50%

## AGTGAGGACCTGCACTG (sugars e3 k2 d7 k2 e3, PS)
HepG2, 3 µM
  target mRNA inhibition: 21%

## TACAGGTCATTGAAACA (sugars e2 k2 d8 k2 e3, PS)
HepG2, 5 µM
  target mRNA inhibition: 26%

## CAGGATACATTTCTACAGCT (sugars e5 d10 e5, linkages s1 o3 s11 o3 s1)
A431, 0.12 µM
  target mRNA inhibition: 13%
A431, 0.6 µM
  target mRNA inhibition: 24%
A431, 3 µM
  target mRNA inhibition: 41%
A431, 15 µM
  target mRNA inhibition: 62%
HepG2, 0.222 µM
  target mRNA inhibition: 38%
HepG2, 0.667 µM
  target mRNA inhibition: 70%
HepG2, 2 µM
  target mRNA inhibition: 95%
HepG2, 6 µM
  target mRNA inhibition: 88%

## TCCAAGGGAATGTTTAT (sugars e2 k2 d8 k2 e3, PS)
HepG2, 4 µM
  target mRNA inhibition: 27%

## CATTGAAACAGACATTT (sugars e3 k2 d7 k2 e3, PS)
HepG2, 3 µM
  target mRNA inhibition: 11%

## AGCAACTCTGAAAAAGTCAC (sugars e5 d10 e5, PS)
HepG2, 5 µM
  target mRNA inhibition: 14%

## AAGTTTAATACCCATCT (sugars e2 k2 d8 k2 e3, PS)
HepG2, 5 µM
  target mRNA inhibition: 54%

## TGTTTATTGGGCGATCC (sugars e2 k2 d8 k2 e3, PS)
HepG2, 4 µM
  target mRNA inhibition: 50%

## ATTGGGCGATCCCAATT (sugars e2 k2 d8 k2 e3, PS)
HepG2, 4 µM
  target mRNA inhibition: 2%

## CCACCAGTGTGCGGCCAATG (sugars e5 d10 e5, PS)
HepG2, 5 µM
  target mRNA inhibition: 22%

## AACTATACAAATCTTCC (sugars e3 k2 d7 k2 e3, PS)
HepG2, 3 µM
  target mRNA inhibition: 28%

## GTTTATTGGGCGATCCC (sugars e3 k2 d7 k2 e3, PS)
HepG2, 3 µM
  target mRNA inhibition: 18%

## CAAGTCATCTGCTTTTT (sugars e3 k2 d7 k2 e3, PS)
HepG2, 3 µM
  target mRNA inhibition: 42%

## TTACTTTCCTTCTGCTCGAA (sugars e5 d10 e5, PS)
HepG2, 3 µM
  target mRNA inhibition: 30%

## ATTTCTACAGCTAGCAG (sugars e2 k2 d8 k2 e3, PS)
HepG2, 4 µM
  target mRNA inhibition: 66%

## CCCCACACCTTCACTG (sugars ekddddddddekekee, linkages s1 o1 s8 o3 s2)
A431, 0.12 µM
  target mRNA inhibition: 0%
A431, 0.6 µM
  target mRNA inhibition: 0%
A431, 3 µM
  target mRNA inhibition: 0%
A431, 15 µM
  target mRNA inhibition: 0%
HepG2, 0.222 µM
  target mRNA inhibition: 21%
HepG2, 0.667 µM
  target mRNA inhibition: 36%
HepG2, 2 µM
  target mRNA inhibition: 60%
HepG2, 6 µM
  target mRNA inhibition: 75%

## TTCATCCTTTGGCCCAC (sugars e3 k2 d7 k2 e3, PS)
HepG2, 3 µM
  target mRNA inhibition: 26%

## TCATAATAAGTGCCATACAG (sugars e5 d10 e5, PS)
HepG2, 5 µM
  target mRNA inhibition: 0%

## TTAATACCCATCTGTGATTT (sugars e5 d10 e5, PS)
HepG2, 5 µM
  target mRNA inhibition: 11%
